Results reported in patent publication US11707557B2, “Compositions and devices incorporating water-insoluble therapeutic agents and methods of the use thereof” (COOK MEDICAL TECHNOLOGIES LLC, priority 2014, dated 2023).

Assays:
[1] = tested on: MDCK cells; test: Uptake and transport of docetaxel through MDCK cell monolayers (transwell); format: in vitro ADME, canine; conditions: EGCG-docetaxel solution 250 micrograms/ml, 2 hours 37° C., compared to tween or diblock copolymer micellar solutions
From the text: The canine kidney cells, known as MDCK cells, are a non cancer proliferating cell line from canine kidneys. The MDR derivative of these cells is a multi-drug resistant version. The cell lines MDCK and MDCK-MDR are routinely used in the field of drug resistance because in the MDCK cells drugs can accumulate and kill the cells whereas the MDR cells contain drug efflux proteins that efflux the drug so that much higher drug doses are needed to maintain intracellular concentrations sufficient to kill these cells. […]
MDCK cells were seeded at 10000 cells per transwell membrane (Becton and Dickenson: 0.3 microns, 1 cm diameter) and grown for one week until a continuous monolayer was present. Drug at 250 micrograms/ml (doped with ^3H docetaxel, with carrier (tween, diblock (2000 40-60) PDLLA-mepeg or EGCG), all in hanks buffer, were added to the top well (0.4 ml) with 1.2 ml of hanks buffer in the base well. The wells were incubated at 37° C. for two hours. The transwells were then disassembled and the amount of drug in the base reservoir (transported through the cells) or in the cells (determined by dissolution of the filter after 3 washes in hanks buffer) was determined by liquid scintillation counting.

[2] = Rate of paclitaxel release from EGCG carrier coatings on balloon catheters; format: physicochemical
Method: A balloon catheter was inflated and revolved along its horizontal axis. […] The drug/EGCG solution was slowly pipetted onto the balloon using 25 microliters at a time and dried with gentle heat from an electric blowdryer. The catheter assembly was then left overnight to dry. To measure the drug release the catheter was inflated and immersed in 5 ml of PBS-albumin buffer at pH 7.4 for a specific time with mild revolution to create movement. The catheter was then removed and placed in a new tube containing 5 ml of PBS-Album in for the second drug release time point. One ml of dichloromethane was added to each 5 ml of PBS and the tube shaken. The contents were allowed to settle and the top liquid aspirated off. The dichloromemethane was allowed to dry and then the solids were redissolved in 60/40 acetonitrile/water v/v and drug quantitated by HPLC analysis (c18 column, 58/5/37 acetonitrile/methanol/water at 1 ml/min flow rate with detection at 232 nm)

Compound	amount of docetaxel accumulated in the cells or transported through the cells [1]	release of paclitaxel from coated balloon catheter ([2]; EGCG alone (zero percentage diblock copolymer), PBS-albumin pH 7.4)	time to complete release of paclitaxel ([2]; EGCG with 10 percentage diblock copolymer) [min]	time to complete release of paclitaxel ([2]; EGCG with 20 percentage diblock copolymer) [min]	release rate of paclitaxel ([2]; EGCG with 50% diblock copolymer)
CC(=O)O[C@@]12CO[C@@H]1C[C@H](O)[C@@]1(C)C(=O)[C@H](O)C3=C(C)[C@@H](OC(=O)[C@H](O)[C@@H](NC(=O)OC(C)(C)C)c4ccccc4)C[C@@](O)([C@@H](OC(=O)c4ccccc4)[C@H]21)C3(C)C [docetaxel]	increased	–	–	–	–
CC(=O)O[C@H]1C(=O)[C@@]2(C)[C@H]([C@H](OC(=O)c3ccccc3)[C@]3(O)C[C@H](OC(=O)[C@H](O)[C@@H](NC(=O)c4ccccc4)c4ccccc4)C(C)=C1C3(C)C)[C@]1(OC(C)=O)CO[C@@H]1C[C@@H]2O [paclitaxel]	–	all paclitaxel was released in one minute	≤ 2	≤ 2	slowed the release rate dramatically
